Experimental findings from article PMC8427694, “The Herbal Compound Thymol Targets Multiple Salmonella Typhimurium Virulence Factors for Lon Protease Degradation” (Frontiers in Pharmacology, 2021) are described below.

Format in all cases: cell-based
The target of experiment [1] is T1, GST-SipA27-270 (Salmonella enterica, UniProt E1WAC6).
T1 construct: gene sipA
The experiment in a line: click chemistry labelling, in-gel fluorescence. The note with it: covalent (suggested; survives SDS and 100 °C); labelled compound; compound added to E. coli culture during expression, 20 °C, 16 h; possibly a cellular derivative binds.

The target in experiment [2] is T2, GST-SipA497-669 (Salmonella enterica, UniProt E1WAC6).
T2 construct: gene sipA; residues 497-669 (actin nucleation domain), N-terminal GST (pGEX-6p-1) kept, expressed in E. coli BL21(DE3), glutathione-Sepharose purified
The experiment in a line: click chemistry labelling, in-gel fluorescence. The note with it: covalent (suggested; survives SDS and 100 °C); labelled compound; compound added to E. coli culture during expression, 20 °C, 16 h; possibly a cellular derivative binds.

The target in experiment [3] is T2, GST-SipA497-669. The experiment in a line: circular dichroism of purified protein from thymol-exposed cells. The note with it: thymol present in E. coli culture during expression; protein 7.3 uM in PBS, 25 °C.
Experiment [4] has as its target T1, GST-SipA27-270. The description is as above. The note with it: thymol present in E. coli culture during expression; protein 7.9 uM in PBS, 25 °C.

T1 sequence (E1WAC6 27-270): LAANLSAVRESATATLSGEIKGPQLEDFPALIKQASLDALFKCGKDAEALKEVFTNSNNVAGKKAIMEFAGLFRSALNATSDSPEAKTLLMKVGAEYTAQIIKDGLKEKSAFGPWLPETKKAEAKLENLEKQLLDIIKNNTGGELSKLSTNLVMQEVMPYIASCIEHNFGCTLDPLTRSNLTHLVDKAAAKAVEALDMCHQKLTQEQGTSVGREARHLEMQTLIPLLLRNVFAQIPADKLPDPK
T2 sequence (E1WAC6 497-669 limits assumed): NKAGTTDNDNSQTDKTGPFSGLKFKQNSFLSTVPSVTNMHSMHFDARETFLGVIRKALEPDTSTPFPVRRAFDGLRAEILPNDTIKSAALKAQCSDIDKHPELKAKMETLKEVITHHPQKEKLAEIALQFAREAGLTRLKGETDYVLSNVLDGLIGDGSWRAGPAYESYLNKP

In the case of `C#CCOc1cc(C)ccc1C(C)C` [alkyne-thymol], the “click chemistry labelling, in-gel fluorescence” value on GST-SipA27-270 [1] and on GST-SipA497-669 [2] was “Fluorescence signals were detected only in samples receiving alkyne-thymol” in each case.
On to `Cc1ccc(C(C)C)c(O)c1` [thymol], for which the “circular dichroism of purified protein from thymol-exposed cells” value at GST-SipA497-669 [3] and on GST-SipA27-270 [4] was “proteins purified from cells treated with thymol exhibited significant changes in their CD spectra” each time.
